Laboratory results reported in ChEMBL document CHEMBL2346556, “Synthesis, receptor binding and activity of iso and azakainoids” (Bioorg Med Chem Lett, 2013).
Activity calls are given as the source filed them. No cut-off for these calls is given here.

How the values were obtained:
[1] = (§1) Displacement of [3H]glutamic acid from rat brain unspecified glutamate receptor by competitive binding assay
Aplysia californica [2] = test: Agonist activity at glutamate receptor in Aplysia californica buccal S cluster neurons assessed as receptor non-desensitization at 30 mV holding potential at 1 mM by patch clamp technique
Aplysia californica [3] = test: Agonist activity at glutamate receptor in Aplysia californica buccal S cluster neurons assessed as membrane depolarization at 1 mM by patch clamp technique
Rattus norvegicus [4] = species: Rattus norvegicus; test: Displacement of [3H]AMPA from rat brain unspecified glutamate receptor by competitive binding assay
Rattus norvegicus [5] = species: Rattus norvegicus; test: Displacement of [3H]NMDA from rat brain unspecified glutamate receptor by competitive binding assay
Rattus norvegicus [6] = species: Rattus norvegicus; test: Displacement of [3H]kainic acid from rat brain unspecified glutamate receptor by competitive binding assay
Rattus norvegicus [7] = species: Rattus norvegicus; test: as §1

Row | EC50 [1] [µM] | Activity (Aplysia californica [3]) | Activity (Rattus norvegicus [4]) | Activity (Rattus norvegicus [5]) | Activity (Rattus norvegicus [6]) | Structure (SMILES) | Activity (Aplysia californica [2]) | Activity (Rattus norvegicus [7])
1 | 12 | Active | inactive | inactive | inactive | O=C(O)C[C@H]1CNN[C@@H]1C(=O)O (relative stereo) | Active | 
2 |  |  | inactive | inactive | inactive | O=C(O)C[C@H]1CNC[C@@H]1C(=O)O (relative stereo) |  | inactive

Row | Structure (SMILES) | EC50 [1] [µM] | Activity (Aplysia californica [3]) | Activity (Rattus norvegicus [4]) | Activity (Rattus norvegicus [5]) | Activity (Rattus norvegicus [6]) | Activity (Aplysia californica [2]) | Activity (Rattus norvegicus [7])
3 | O=C(O)C[C@H]1CCN[C@@H]1C(=O)O (relative stereo) |  |  | inactive | inactive | inactive |  | inactive
